# Several values for one entry are separate records, joined by “and”; a condition that tells them apart may be missing. Equal entries are not always repeated.
# Key:
# Format in all cases: biochemical
# [1] = target: T1, SETD2 (Homo sapiens, UniProt Q9BYW2); experiment: Methylation of purified ssK36 and H3K36 peptides, Tricine gel autoradiography; conditions: 20 µM peptide, 6 µM SETD2, 0.76 µM AdoMet, 3 h, 25 °C; densitometry, three independent experiments, ± SD
# T1 construct: SETD2 catalytic SET domain (amino acids 1347–1711, UniProt No: Q9BYW2); made in house; host or cells: E. coli
# T1 sequence (Q9BYW2 1347-1711): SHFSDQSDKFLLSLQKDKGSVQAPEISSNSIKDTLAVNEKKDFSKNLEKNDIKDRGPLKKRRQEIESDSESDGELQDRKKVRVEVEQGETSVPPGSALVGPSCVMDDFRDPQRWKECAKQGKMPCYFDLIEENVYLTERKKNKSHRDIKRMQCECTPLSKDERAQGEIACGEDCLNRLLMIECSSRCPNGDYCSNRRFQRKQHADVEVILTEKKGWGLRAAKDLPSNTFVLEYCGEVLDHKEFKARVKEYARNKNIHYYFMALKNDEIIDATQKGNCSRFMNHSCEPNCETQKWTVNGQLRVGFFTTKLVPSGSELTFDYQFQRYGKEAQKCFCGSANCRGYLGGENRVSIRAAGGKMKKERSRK
# Text: To compare the methylation rates of the H3K36 and super-substrate peptides directly, purified ssK36 and H3K36 were methylated by SETD2, resolved on a Tricine gel and the methylation activity captured by autoradiography (Fig. 2b). To allow direct comparison of the methylation levels of both substrates, methylated ssK36 was loaded in different dilutions on the same gel.
# (§1) The H3K36 (27–43) and the H3K36M (27–43) peptides were purchased from Intavis AG (Köln, Germany) and the ssK36 peptide (29–43) and the ssK36M peptide (29–43) were from Innovative Peptide Solutions (Berlin, Germany). If not indicated otherwise, peptide methylation reactions were performed using 20 µM peptide and 6 µM SETD2 in 20 µl methylation buffer supplemented with 0.76 µM radioactive labeled AdoMet (PerkinElmer) for 3 h at 25 °C. The reactions were halted by the addition of Tricine-SDS-PAGE loading buffer and incubation for 5 min at 95 °C. Afterward the samples were separated by Tricine-SDS-PAGE, which was followed by the incubation of the gel in amplify NAMP100V (GE Healthcare) for 45 min on a shaker and drying of the gel for 2 h at 55 °C in vacuum. The signals of the transferred radioactive labeled methyl groups were detected by autoradiography using a hyperfilm^TM high performance autoradiography film (GE Healthcare) at −80 °C in the dark. […]
# [2] = target: T1, SETD2; experiment: Steady-state peptide methylation kinetics (Michaelis-Menten); conditions: 20–320 µM peptide; Michaelis-Menten fit; two independent experiments
# Experimental: To further characterize the methylation kinetics of the super-substrate peptide, steady-state methylation experiments were performed using the super-substrate peptide in different concentrations ranging from 20 to 320 µM (Supplementary Fig. 3a). […] To further study the difference in peptide binding, inhibition of SETD2 by ssK36M and H3K36M inhibitor peptides was investigated (Supplementary Fig. 3b and c).
# as §1, with “Afterward the samples were separated by Tricine-SDS-PAGE, which was followed by the incubation of the gel in amplify NAMP100V (GE Healthcare) for 45 min on a shaker and drying of the gel for 2 h at 55 °C in vacuum.” left out
# Multiple turnover kinetics were determined using variable peptide concentrations (20–320 µM). […]
# [3] = target: T1, SETD2; experiment: Peptide SPOT array target lysine methylation of selected non-histone peptides (Fig. 3b); conditions: Exp1–Exp3, 3–6 µM SETD2, 0.76 µM AdoMet, 60 min, pH 9, listed as DS
# Text: However, we could identify 166 possible targets, which contain partial matches to the substrate specificity profile. The possible methylation of these 166 putative substrates was investigated at the peptide level. For this, fifteen amino acid long peptides containing the sequence of the non-histone targets surrounding the predicted target lysine were synthesized on a membrane. The H3K36 (29–43) peptide (spots A1, I9), the super-substrate peptide (spots A3, I11) and the corresponding lysine to alanine mutation peptides (spot A2, I10, and A4, I12) were included as positive and negative controls (Fig. 3a, Supplementary Fig. 4 and Supplementary Table 2). The methylation reactions and the detection of the methylation signals were performed in duplicates as described above. We observed that all of the investigated peptides were more weakly methylated than the super-substrate peptide. […] In the next step, 20 of the peptides were selected for further investigation based on the methylation intensity and the known functions of the proteins to confirm the methylation at the predicted target site. The peptides were synthesized on another membrane, now including the target lysine to alanine mutation control peptides in each case. The methylation reactions and the detection of the signal were conducted as described above (Fig. 3b, Supplementary Fig. 5 and Supplementary Table 3).
# Fig. 3 Identification of non-histone substrates of SETD2. a Candidate non-histone peptide substrates were identified in the human proteome based on the SETD2 super-substrate specificity profile. The peptides were synthesized on a peptide SPOT array (Supplementary Table 2) and methylated by SETD2. As controls, the H3K36, H3K36A, ssK36 and ssK36A peptides were included on spots A1–A4 and I9–I12. The autoradiography image is an example of the obtained results. […] The quantification of the data of two experiments is shown in Supplementary Fig. 4. b Analysis of target lysine methylation of selected non-histone substrate peptides. Peptide SPOT arrays were synthesized containing the non-histone peptide substrates identified in panel A in addition to the lysine to alanine mutations presented on the array as every second spot (Supplementary Table 3). As controls, the H3K36, H3K36A, ssK36, and ssK36A mutant peptides were included on spot A1–A4 and C5–C8. The autoradiography image is an example of the obtained results. The quantification of the data of three experiments is shown in Supplementary Fig. 5. Peptides selected for furhter analysis are highlighted by blue circles. c Protein methylation of FBN1 and confirmation of the target lysine methylation. Both wild type (WT) and mutant (K666R) FBN1 were purified and equal amounts were methylated by SETD2 (2 µM). […] The size of FBN1 is indicated by an asterisk.
# Peptide arrays containing fifteen amino acid long peptides were synthesized using the SPOT synthesis method[48] with an Autospot peptide array synthesizer (Intavis AG, Köln, Germany). After synthesis, the obtained membranes were pre-incubated in methylation buffer (20 mM Tris/HCl pH 9, 0.01% Triton X-100, 10 mM DTT, 1.5 mM MgCl2) for 5 min on a shaker. Thereafter, the membranes were incubated in methylation buffer supplemented with 0.76 µM radioactively labeled AdoMet (PerkinElmer) and 3–6 µM SETD2 enzyme for 60 min on a shaker. After methylation, the membranes were washed 5 times for 5 min in wash buffer (100 mM NH4HCO3, 1% SDS) and incubated in amplify NAMP100V (GE Healthcare) for 5 min. This was followed by the exposure of the membranes to a hyperfilm^TM high performance autoradiography (GE Healthcare) film at −80 °C in the dark. The films were developed with an Optimax Typ TR machine after different exposue times. For quantification the signal intensities were measured with the Phoretix^TM software and analyzed with Microsoft Excel.
sequence,measurement,setting,value
"APRFGGVKRPNRYRP [ssK36, super-substrate peptide with four amino acid exchanges (A31R, T32F, K37R, H39N)]",fold more efficient methylation of ssK36 than wild type H3K36 peptide,[1],50 ± 4 fold
same,Km,[2],45 µM
same,"Relative methylation signal, Average",[3],0.95 and 0.9901
